Values of other authors, collected in patent US20070037707A1, “Plant growth regulator formulations” (HELENA HOLDING COMPANY, priority 2005, published 2007).

What was measured:
[1] = not given; remark: listed apart in the source
organically grown cotton = conditions: used alone; compared with conventional chemistry like (2-chloroethyl) phosphonic acid

For `O=P(O)(O)CCCl` [(2-chloroethyl)phosphonic acid], which water solubility is on record?
Its water solubility is “water soluble”.

And the “pH of the pure product” value ([1]; according to the MSDS sheet for a formulated product)?
The value was 1.7.

And the “pH range in which stable” value ([1]; at higher pH decomposes and liberates ethylene, Pesticide Manual)?
The value was “below 3.5”.

Which “effectiveness as cotton defoliant” value (organically grown cotton) does the source give for `O=C(O)CC(O)(CC(=O)O)C(=O)O` [Citric acid] here?
Its value is “not as effective”.
